Test systems include UACC-62 melanoma; NCI-H460 lung; SK-MEL-28 melanoma; KM12 colon; SW-620 colon; MOLT-4 leukemia; HT29 colon; IGROV1 ovarian; SK-MEL-2 melanoma; OVCAR-4 ovarian; K-562 leukemia; SF-268 CNS; UO-31 renal; NCI-H23 lung; SF-539 CNS; HCT-15 colon; HCT-116 colon; SN12C renal; MALME-3M melanoma.
Common to all, as to assay: growth of human tumour cells (NCI), 48 h

In PubChem BioAssay (NCI) one finds TGI and GI50 data, which are given here for six compounds.

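Five concentrations, 48 hours, 96-well plates. At the GI50, growth is halved. TGI marks complete inhibition of growth.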

As for `O=C(Nc1nc2ccc([N+](=O)[O-])cc2s1)C(=O)C(C(=O)c1ccccc1F)C1OC(=O)c2ccccc21` (configuration not stated), the TGI in the assay with UACC-62 melanoma, in the assay on NCI-H460 lung, in the assay with SK-MEL-28 melanoma, with KM12 colon, in the assay on SW-620 colon and with MOLT-4 leukemia was over 100 µM in each case. Further, the TGI in the assay on HT29 colon, in the assay on IGROV1 ovarian, with SK-MEL-2 melanoma, in the assay with OVCAR-4 ovarian, with K-562 leukemia and in the assay with SF-268 CNS was over 100 µM each time. The TGI is over 100 µM in the assay with UO-31 renal; over 100 µM in the assay with NCI-H23 lung; 48.3 µM with SF-539 CNS; over 100 µM in the assay with HCT-15 colon; over 100 µM in the assay on HCT-116 colon; over 100 µM with SN12C renal.
For `CCCc1c(-c2ccccc2)[nH]c2ccccc2c1=O`, the TGI in the assay on UACC-62 melanoma was over 100 µM; with NCI-H460 lung, over 100 µM; in the assay on SK-MEL-28 melanoma it was over 100 µM; in the assay on KM12 colon, 88.2 µM; in the assay with SW-620 colon, over 100 µM; in the assay on MALME-3M melanoma, over 100 µM. For the same compound, the TGI with MOLT-4 leukemia was over 100 µM; in the assay with HT29 colon, 50.3 µM; with IGROV1 ovarian it was over 100 µM; in the assay on SK-MEL-2 melanoma, 96.7 µM; in the assay on OVCAR-4 ovarian, over 100 µM; in the assay with K-562 leukemia, over 100 µM. Besides, the TGI with SF-268 CNS was over 100 µM; in the assay with UO-31 renal, 69.1 µM; in the assay with NCI-H23 lung, over 100 µM; in the assay with SF-539 CNS, over 100 µM; in the assay with HCT-15 colon it was over 100 µM; in the assay with HCT-116 colon, 72.8 µM. This compound also returned a TGI in the assay with SN12C renal of over 100 µM.
Turning to `O=C1OC2(CC1C1(O)C3CC4CC(C3)CC1C4)C1CC3CC(C1)CC2C3` (configuration not stated), the TGI with UACC-62 melanoma, in the assay with NCI-H460 lung, with SK-MEL-28 melanoma, in the assay on KM12 colon, with SW-620 colon and with MALME-3M melanoma was over 100 µM in each case. The TGI was over 100 µM in the assay with MOLT-4 leukemia; over 100 µM with HT29 colon; over 100 µM with IGROV1 ovarian; over 100 µM in the assay with SK-MEL-2 melanoma; 76.6 µM with OVCAR-4 ovarian; over 100 µM with K-562 leukemia. For the same compound, the TGI in the assay on SF-268 CNS, in the assay on UO-31 renal, in the assay on NCI-H23 lung, with SF-539 CNS, in the assay with HCT-15 colon and with HCT-116 colon was over 100 µM throughout. The TGI in the assay with SN12C renal is over 100 µM.
On to `Cc1ccc(C2OC(COCc3ccc(Cl)cc3)C(OCc3ccc(Cl)cc3)C2O)cc1` (configuration not stated), for which the TGI with UACC-62 melanoma was 18.7 µM; in the assay on NCI-H460 lung it was 14.9 µM; with SK-MEL-28 melanoma, over 100 µM; in the assay on KM12 colon, 71.2 µM; in the assay on SW-620 colon, 49.5 µM; with MOLT-4 leukemia it was over 100 µM. Besides, the TGI in the assay on HT29 colon was 26.2 µM; in the assay with IGROV1 ovarian it was 35.5 µM; in the assay with SK-MEL-2 melanoma, 31 µM; in the assay with OVCAR-4 ovarian, 40.9 µM; with K-562 leukemia, over 100 µM; with UO-31 renal, 23.8 µM. The TGI is 40.3 µM in the assay with NCI-H23 lung; 36.2 µM with SF-539 CNS; over 100 µM in the assay with HCT-15 colon; over 100 µM in the assay on HCT-116 colon; 13.1 µM with SN12C renal.
For `N#C[C@H](OC1OC(COC2OC(CO)C(O)C(O)C2O)C(O)C(O)C1O)c1ccccc1` (some centres not stated), the TGI in the assay with UACC-62 melanoma, in the assay with NCI-H460 lung, with SK-MEL-28 melanoma, in the assay with KM12 colon, with SW-620 colon and with MALME-3M melanoma was over 250 µM each time. Moreover, the TGI is over 141 µM in the assay with MOLT-4 leukemia; over 250 µM in the assay on HT29 colon; over 250 µM in the assay on IGROV1 ovarian; over 250 µM with SK-MEL-2 melanoma; over 250 µM in the assay on OVCAR-4 ovarian; over 250 µM with K-562 leukemia. Further, the TGI in the assay with SF-268 CNS, in the assay with UO-31 renal, in the assay on NCI-H23 lung, in the assay with SF-539 CNS, in the assay on HCT-15 colon and with HCT-116 colon was over 250 µM in each case. The same compound returned a TGI in the assay on SN12C renal of over 250 µM. Further, the GI50 in the assay with MOLT-4 leukemia was over 141 µM.
Take `O=C(O)c1cc2c(ncc3c(=O)n(-c4ccccc4)[nH]c32)s1`: the TGI with UACC-62 melanoma, with NCI-H460 lung, in the assay with SK-MEL-28 melanoma, in the assay on KM12 colon, in the assay with SW-620 colon and in the assay on MALME-3M melanoma was over 100 µM throughout. The TGI in the assay on MOLT-4 leukemia, in the assay with HT29 colon, in the assay on IGROV1 ovarian, in the assay with SK-MEL-2 melanoma, with OVCAR-4 ovarian and in the assay on K-562 leukemia was over 100 µM in each case. For the same compound, the TGI with SF-268 CNS, with UO-31 renal, with NCI-H23 lung, in the assay on SF-539 CNS, with HCT-15 colon and in the assay on HCT-116 colon was over 100 µM throughout. Besides, the TGI in the assay with SN12C renal is over 100 µM.
